Results on 19 molecules are retold here after patent publication US20220089575A1, “FARNESOID X RECEPTOR AGONISTS AND USES THEREOF” (Metacrine, Inc., priority 2017, published 2022).

This assay concerns the target T1, hFXR (Homo sapiens, UniProt Q96RI1).
T1 construct: expressed in transfected cells; host or cells: CV-1 cells
T1 sequence (Q96RI1 1-486): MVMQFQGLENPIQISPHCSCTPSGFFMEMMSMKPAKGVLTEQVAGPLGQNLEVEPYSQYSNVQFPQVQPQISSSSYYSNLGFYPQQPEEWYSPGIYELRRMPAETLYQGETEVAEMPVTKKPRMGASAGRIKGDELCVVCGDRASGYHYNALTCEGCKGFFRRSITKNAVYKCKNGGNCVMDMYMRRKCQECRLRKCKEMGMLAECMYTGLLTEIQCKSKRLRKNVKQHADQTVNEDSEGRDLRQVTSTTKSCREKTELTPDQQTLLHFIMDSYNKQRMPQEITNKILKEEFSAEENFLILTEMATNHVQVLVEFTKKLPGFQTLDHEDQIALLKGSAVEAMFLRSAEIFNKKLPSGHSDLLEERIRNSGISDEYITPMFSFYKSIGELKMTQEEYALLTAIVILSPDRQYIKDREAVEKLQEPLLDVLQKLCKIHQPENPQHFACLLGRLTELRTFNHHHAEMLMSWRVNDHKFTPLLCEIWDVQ
T1 sequence (P19793 1-462 partner): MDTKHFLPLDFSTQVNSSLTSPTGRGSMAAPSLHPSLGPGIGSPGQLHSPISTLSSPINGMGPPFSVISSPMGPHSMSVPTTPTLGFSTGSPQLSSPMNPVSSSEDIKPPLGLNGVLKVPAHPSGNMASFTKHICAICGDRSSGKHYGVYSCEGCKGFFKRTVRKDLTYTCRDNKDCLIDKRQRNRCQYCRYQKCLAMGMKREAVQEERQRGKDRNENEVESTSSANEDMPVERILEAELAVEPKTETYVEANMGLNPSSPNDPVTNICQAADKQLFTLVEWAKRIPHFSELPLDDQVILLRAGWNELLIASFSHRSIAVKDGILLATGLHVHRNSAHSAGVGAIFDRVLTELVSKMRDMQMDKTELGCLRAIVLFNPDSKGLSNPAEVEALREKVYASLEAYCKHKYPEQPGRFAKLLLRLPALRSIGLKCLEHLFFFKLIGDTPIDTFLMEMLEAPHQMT
The experiment in a line: In Vitro FXR Assay (TK): TK-ECRE-luc reporter in transfected CV-1 cells. Format: cell-based. As to conditions: 18 hrs, luminescence, maximum efficacy of <25% of the Fexarmine control classified as '+'. The method, boiled down:
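CV-1 cells in DMEM with 10% charcoal-stripped FBS were co-transfected with hFXR, hRXR, TK-ECRE-luc reporter and pCMX-YFP plasmids. After 18 h, compounds serially diluted in DMSO were added for a further 18 h, then cells were lysed and luminescence read.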

`CNC(=O)O[C@H]1CC[C@H](C(=O)N(CC23CCC(c4ccc(OC)c(C)c4)(CC2)CC3)c2cc(-c3cnc(C4CC4)s3)ccn2)CC1` [Compound 2.03, 4-((4-(2-Cyclopropylthiazol-5-yl)pyridin-2-yl)((4-(4-methoxy-3-methylphenyl)bicyclo[2.2.2]octan-1-yl)methyl)carbamoyl)cyclohexyl trans-methylcarbamate] returned an EC50 of at most 250 nM.

For `COc1ccc([C@H]2CC[C@H](CN(c3cccc(-c4coc(C(C)C)n4)c3)C(=O)[C@H]3CC[C@H](OC(=O)N4CC(O)C4)CC3)CC2)nc1C#N` [Compound 7.74, trans-4-(((trans-4-(6-Cyano-5-methoxypyridin-2-yl)cyclohexyl)methyl)(3-(2-isopropyloxazol-4-yl)phenyl)carbamoyl)cyclohexyl 3-hydroxyazetidine-1-carboxylate], the EC50 is at most 250 nM.

Consider `COc1ncc([C@H]2CC[C@H](CN(c3cc(-c4coc(C5CC5)n4)ccn3)C(=O)[C@H]3CC[C@H](OC(=O)N4CC(N(C)C)C4)CC3)CC2)cc1C` [Compound 7.92, trans-4-((4-(2-Cyclopropyloxazol-4-yl)pyridine-2-yl)((trans-4-(6-methoxy-5-methylpyridin-3-yl)cyclohexyl)methyl)carbamoyl)cyclohexyl 3-(dimethylamino)azetidine-1-carboxylate], for which the EC50 is at most 250 nM.

The molecule `COc1ccc([C@H]2CC[C@H](CN(c3cccc(-c4cnc(C5CC5)s4)c3)C(=O)[C@H]3CC[C@H](C(=O)O)CC3)CC2)cc1Cl` [Compound 17.03, trans-4-(((trans-4-(3-Chloro-4-methoxyphenyl)cyclohexyl)methyl)(3-(2-cyclopropylthiazol-5-yl)phenyl)carbamoyl)cyclohexanecarboxylic acid] displayed a 50% effective concentration (EC50) of at most 250 nM.

`COc1ccc([C@H]2CC[C@H](CN(c3cccc(-c4cnc(C5CC5)s4)c3)C(=O)[C@H]3CC[C@H](NC(=O)Cc4ncc[nH]4)CC3)CC2)cc1C` [Compound 27.04, trans-4-(2-(1H-Imidazol-2-yl)acetamido)-N-(3-(2-cyclopropylthiazol-5-yl)phenyl)-N-((trans-4-(4-methoxy-3-methylphenyl)cyclohexyl)methyl)cyclohexanecarboxamide]: the EC50 is at most 250 nM.

`COc1ccc([C@H]2CC[C@H](CN(c3cc(-c4coc(C5CC5)n4)ccn3)C(=O)[C@H]3CC[C@H](OC(=O)N4CCN(C)CC4)CC3)CC2)cc1C` [Compound 6.64, trans-4-((4-(2-Cyclopropyloxazol-4-yl)pyridine-2-yl)((trans-4-(4-methoxy-3-methylphenyl)cyclohexyl)methyl)carbamoyl)cyclohexyl 4-methylpiperazine-1-carboxylate]: the concentration for a half-maximal effect (EC50) is at most 250 nM.

Regarding `COc1ccc([C@H]2CC[C@H](CN(c3cccc(-c4cnn(C5CC5)c4)c3)C(=O)[C@H]3CC[C@H](OC(=O)NCc4c[nH]cn4)CC3)CC2)cc1C` [Compound 4.15, trans-4-((3-(1-Cyclopropyl-1H-pyrazol-4-yl)phenyl)((trans-4-(4-methoxy-3-methylphenyl)cyclohexyl)methyl)carbamoyl)cyclohexyl ((1H-imidazol-4-yl)methyl)carbamate], the EC50 is at most 250 nM.

For `CNC(=O)O[C@H]1CC[C@H](C(=O)N(C[C@H]2CC[C@H](c3ccc(OC)c(C)n3)CC2)c2cc(-c3coc(C4CC4)n3)ccn2)CC1` [Compound 5.34, trans-4-((4-(2-Cyclopropyloxazol-4-yl)pyridine-2-yl)((trans-4-(5-methoxy-6-methylpyridin-2-yl)cyclohexyl)methyl)carbamoyl)cyclohexyl methylcarbamate], the 50% effective concentration (EC50) was at most 250 nM.

`COc1ccc([C@H]2CC[C@H](CN(c3cccc(-c4coc(C5CC5)n4)c3)C(=O)[C@H]3CC[C@H](OC(=O)NCCCO)CC3)CC2)nc1C` [Compound 6.51, trans-4-((3-(2-Cyclopropyloxazol-4-yl)phenyl)((trans-4-(5-methoxy-6-methylpyridin-2-yl)cyclohexyl)methyl)carbamoyl)cyclohexyl (3-hydroxypropyl)carbamate] gave a concentration for a half-maximal effect (EC50) of at most 250 nM.

`CNC(=O)O[C@H]1CC[C@H](C(=O)N(C[C@H]2CC[C@H](c3cnc(OC)c(Cl)c3)CC2)c2cccc(-c3cnn(C4CC4)c3)c2)CC1` [Compound 5.11, trans-4-(((trans-4-(5-Chloro-6-methoxypyridin-3-yl)cyclohexyl)methyl)(3-(1-cyclopropyl-1H-pyrazol-4-yl)phenyl)carbamoyl)cyclohexyl methylcarbamate] returned an EC50 of at most 250 nM.

As for `COc1ccc([C@H]2CC[C@H](CN(c3cc(-c4cnn(C(C)C)c4)ccn3)C(=O)[C@H]3CC[C@H](OC(=O)N4CC(O)C4)CC3)CC2)nc1C#N` [Compound 7.40, trans-4-(((trans-4-(6-Cyano-5-methoxypyridin-2-yl)cyclohexyl)methyl)(4-(1-isopropyl-1H-pyrazol-4-yl)pyridin-2-yl)carbamoyl) cyclohexyl 3-hydroxyazetidine-1-carboxylate], the EC50 is at most 250 nM.

Turning to `COC(=O)NC[C@H]1CC[C@H](C(=O)N(C[C@H]2CC[C@H](c3ccc(OC)c(C)n3)CC2)c2cc(-c3coc(C4CC4)n3)ccn2)CC1` [Compound 26.27, Methyl ((trans-4-((4-(2-cyclopropyloxazol-4-yl)pyridin-2-yl)((trans-4-(5-methoxy-6-methylpyridin-2-yl)cyclohexyl)methyl)carbamoyl)cyclohexyl)methyl)carbamate], the 50% effective concentration (EC50) is at most 250 nM.

The molecule `COc1ccc([C@H]2CC[C@H](CN(c3cc(-c4coc(C5CC5)n4)ccn3)C(=O)[C@H]3CC[C@H](OC(=O)N4CC(C)C4)CC3)CC2)nc1C` [Compound 7.89, trans-4-((4-(2-Cyclopropyloxazol-4-yl)pyridine-2-yl)((trans-4-(5-methoxy-6-methylpyridin-2-yl)cyclohexyl)methyl)carbamoyl)cyclohexyl 3-methylazetidine-1-carboxylate] registered an EC50 of at most 250 nM.

Molecule `COc1ccc([C@H]2CC[C@H](CN(c3cc(-c4cnn(C5CC5)c4)ccn3)C(=O)[C@H]3CC[C@H](OC(=O)N4CC(O)C4)CC3)CC2)cc1C#N` [Compound 7.21, trans-4-(((trans-4-(3-Cyano-4-methoxyphenyl)cyclohexyl)methyl)(4-(1-cyclopropyl-1H-pyrazol-4-yl)pyridin-2-yl)carbamoyl)cyclohexyl 3-hydroxyazetidine-1-carboxylate] showed an EC50 of at most 250 nM.

The molecule `COc1ccc([C@H]2CC[C@H](CN(c3cccc(-c4cnn(C5CC5)c4)c3)C(=O)[C@H]3CC[C@H](OC(=O)N4CC(O)C4)CC3)CC2)cc1C` [Compound 4.25, trans-4-((3-(1-Cyclopropyl-1H-pyrazol-4-yl)phenyl)((trans-4-(4-methoxy-3-methylphenyl)cyclohexyl)methyl)carbamoyl)cyclohexyl 3-hydroxyazetidine-1-carboxylate] showed an EC50 of at most 250 nM.

The molecule `COc1ncc(-c2cccc(N(C[C@H]3CC[C@H](c4ccc(OC)c(C)c4)CC3)C(=O)[C@H]3CC[C@H](CNC(=O)OC(C)(C)C)CC3)c2)s1` [Compound 25.02, tert-Butyl ((trans-4-(((trans-4-(4-methoxy-3-methylphenyl)cyclohexyl)methyl)(3-(2-methoxythiazol-5-yl)phenyl)carbamoyl)cyclohexyl)methyl)carbamate] displayed a half-maximal effective concentration (EC50) of 250 to 1000 nM.

As for `COc1ccc([C@H]2CC[C@H](CN(c3cc(-c4cnn(C(C)C)c4)ccn3)C(=O)[C@H]3CC[C@H](OC(=O)NC4CC4)CC3)CC2)nc1C` [Compound 6.31, trans-4-((4-(1-Isopropyl-1H-pyrazol-4-yl)pyridin-2-yl)((trans-4-(5-methoxy-6-methylpyridin-2-yl)cyclohexyl)methyl)carbamoyl)cyclohexyl cyclopropylcarbamate], the concentration for a half-maximal effect (EC50) is at most 250 nM.

`COc1ccc([C@H]2CC[C@H](CN(c3cccc(-c4cnn(C5CC5)c4)c3)C(=O)[C@H]3CC[C@H](C(=O)NCCO)CC3)CC2)cc1C` [Compound 23, trans-N^1-(3-(1-Cyclopropyl-1H-pyrazol-4-yl)phenyl)-N^4-(2-hydroxyethyl)-N^1-((trans-4-(4-methoxy-3-methylphenyl)cyclohexyl)methyl)cyclohexane-1,4-dicarboxamide]: the EC50 is 250 to 1000 nM.

`COc1ccc([C@H]2CC[C@H](CN(c3cc(-c4cnn(C(C)C)c4)ccn3)C(=O)[C@H]3CC[C@H](OC(=O)N4CC(S(C)(=O)=O)C4)CC3)CC2)nc1C` [Compound 6.39, trans-4-((4-(1-Isopropyl-1H-pyrazol-4-yl)pyridin-2-yl)((trans-4-(5-methoxy-6-methylpyridin-2-yl)cyclohexyl)methyl)carbamoyl)cyclohexyl 3-(methylsulfonyl)azetidine-1-carboxylate] had an EC50 of at most 250 nM.

By EC50 is commonly meant the concentration at which the effect is half-maximal. Low readings indicate a more potent agent, high ones a less potent agent.
